These results are taken from patent US7588931B2, “High arachidonic acid producing strains of Yarrowia lipolytica” (E. I. du Pont de Nemours and Company, priority 2004, dated 2009).

What all share (format): cell-based, Yarrowia lipolytica
For series [1], the system named is β-glucuronidase (GUS) reporter. Put plainly: Comparative analysis of promoters by histochemical analysis of GUS expression. As for the experimental part: Comparative studies investigating the promoter activities of the TEF, GPD, GPDIN, GPM, GPAT, FBA, FBAIN and YAT1 promoters were performed, by synthesizing constructs comprising each promoter and the E. coli gene encoding β-glucuronidase (GUS) as a reporter gene (Jefferson, R. A. Nature. 14(342):837-838 (1989)). Then, GUS activity was measured by histochemical and fluorometric assays (Jefferson, R. A. Plant Mol. Biol. Reporter 5:387-405 (1987)) and/or by using Real Time PCR for mRNA quantitation.
Yarrowia lipolytica ATCC #76982 strains containing plasmids pY5-30, pYZGDG, pYZGMG, pDMW212 and pDMW214 were grown from single colonies in 3 mL MM at 30° C. to an OD600˜1.0. Then, 100 μl of cells were collected by centrifugation, resuspended in 100 μl of histochemical staining buffer, and incubated at 30° C. Staining buffer was prepared by dissolving 5 mg of 5-bromo-4-chloro-3-indolyl glucuronide (X-Gluc) in 50 μl dimethyl formamide, followed by the addition of 5 mL 50 mM NaPO4, pH 7.0.
In a separate experiment, Y. lipolytica Y2034 strains containing plasmids pY5-30, pYGPAT-GUS, pYAT-GUS and pDMW214 were grown from single colonies in 5 mL SD media at 30° C. for 24 hrs to an OD600˜8.0. Then, 1 mL of cells were collected by centrifugation. The remaining cultures were centrifuged and washed 2× with HGM, resuspended in 5 mL each of HGM and allowed to grow at 30° C. further. […]

For series [2], the system named is β-glucuronidase (GUS) reporter. Put plainly: Comparative analysis of promoters by fluorometric assay of GUS expression. As for the experimental part: GUS activity was also assayed by fluorometric determination of the production of 4-methylumbelliferone (4-MU) from the corresponding substrate β-glucuronide (Jefferson, R. A. Plant Mol. Biol. Reporter 5:387-405 (1987)).
Yarrowia lipolytica ATCC #76982 strains containing plasmids pY5-30, PYZGDG, PYZGMG, pDMW212 and pDMW214 were grown from single colonies in 3 mL MM (as described above) at 30° C. to an OD600˜1.0. Then, the 3 mL cultures were each added to a 500 mL flask containing 50 mL MM and grown in a shaking incubator at 30° C. for about 24 hrs. The cells were collected by centrifugation, resuspended in Promega Cell Lysis Buffer and lysed using the BIO 101 Biopulverizer system (Vista, Calif.). After centrifugation, the supernatants were removed and kept on ice.
Similarly, Y. lipolytica strain Y2034 containing plasmids pY5-30, pYAT-GUS, pYGPAT-GUS and pDMW214 constructs, respectively, were grown from single colonies in 10 mL SD medium at 30° C. for 48 hrs to an OD600˜5.0. Two mL of each culture was collected for GUS activity assays, as described below, while 5 mL of each culture was switched into HGM.
Specifically, cells from the 5 mL aliquot were collected by centrifugation, washed once with 5 mL of HGM and resuspended in HGM. The cultures in HGM were then grown in a shaking incubator at 30° C. for 24 hrs. Two mL of each HGM culture were collected for the GUS activity assay, while the remaining culture was allowed to grow for an additional 96 hrs before collecting an additional 2 mL of each culture for the assay.
Each 2 mL culture sample in SD medium was resuspended in 1 mL of 0.5× cell culture lysis reagent (Promega). Resuspended cells were mixed with 0.6 mL of glass beads (0.5 mm diameter) in a 2.0 mL screw cap tube with a rubber O-ring. The cells were then homogenized in a Biospec mini beadbeater (Bartlesville, Okla.) at the highest setting for 90 sec. The homogenization mixtures were centrifuged for 2 min at 14,000 rpm in an Eppendof centrifuge to remove cell debris and beads. The supernatant was used for GUS assay and protein determination.
For each fluorometric assay, 100 μl of extract was added to […] of GUS assay buffer (2 mM 4-methylumbelliferyl-β-D-glucuronide (“MUG”) in extraction buffer) or 200 μl of extract was added to 800 μl of GUS assay buffer. The mixtures were placed at 37° C. Aliquots of 100 μl were taken at 0, 30 and 60 min time points and added to 900 μl of stop buffer (1 M Na2CO3). Each time point was read using a CytoFluor Series 4000 Fluorescence Multi-Well Plate Reader (PerSeptive Biosystems, Framingham, Mass.) set to an excitation wavelength of 360 nm and an emission wavelength of 455 nm. Total protein concentration of each sample was determined using 10 μl of extract and 200 μl of BioRad Bradford reagent or 20 μl of extract and 980 μl of BioRad Bradford reagent (Bradford, M. M. Anal. Biochem. 72:248-254 (1976)). GUS activity was expressed as nmoles of 4-MU per minute per mg of protein.

Series [3] relates to β-glucuronidase (GUS) reporter. Nature of the series: Relative promoter activity rank from comparative GUS reporter studies (histochemical, fluorometric and/or Real Time PCR). The conditions noted are these: relative to other promoters. As for the experimental part: The activity of GPM is about the same as TEF, while the activity of GPD, FBA, FBAIN, FBAINm, GPDIN, GPAT, YAT1 and EXP1 are all greater than TEF (activity is quantified in a relative manner in the column titled “Activity Rank”, wherein a ‘1’ corresponds to the promoter with lowest activity, while a ‘7’ corresponds to the promoter with highest activity). […] GUS activity in each expressed construct was measured by histochemical and/or fluorometric assays (Jefferson, R. A. Plant Mol. Biol. Reporter 5:387-405 (1987)) and/or by use of Real Time PCR.
On the technique in general: Quantitative PCR measures a nucleic acid by following its amplification.

Series [4] concerns wild type Y. lipolytica strains ATCC #20362 and ATCC #90812. Nature of the series: Sulfonylurea sensitivity screening of wild type strains. The note with it: wild type strains ATCC #20362 and ATCC #90812. An excerpt: When the amino acid sequences of wild type AHAS Y. lipolytica (GenBank Accession No. XP—501277) and S. cerevisiae (GenBank Accession No. P07342) enzymes were aligned, the Trp amino acid residue at position 586 of the S. cerevisiae enzyme was equivalent to the Trp residue at position 497 of the Y. lipolytica enzyme. It was therefore hypothesized that W497L mutation in the Y. lipolytica enzyme would likely confer sulfonylurea herbicide resistance, if the wild type cells were themselves sensitive to sulfonylurea. Using methodology well known to those of skill in the art, it was determined that sulfonylurea (chlorimuron ethyl) at a concentration of 100 μg/mL in minimal medium was sufficient to inhibit growth of wild type Y. lipolytica strains ATCC #20362 and ATCC #90812.

Entries after “also recorded” stand apart in the source; their conditions may differ.

“YAT1: Y. lipolytica ammonium transporter promoter, SEQ ID NO:165”: the “promoter activity by histochemical staining” value in series [1] (strain Y2034, 24 hr in SD medium, FIG. 5C) was “active; also recorded: stronger than the TEF promoter but significantly weaker than the FBAIN promoter and GPAT promoter”; in series [1] (strain Y2034, grown in HGM for 24 hrs), “stronger than the GPAT promoter and comparable with the FBAIN promoter”. For the same molecule, the “promoter activity relative to activity in SD medium” value in series [2] (after 120 hrs in HGM) was found to be 25 ×. For the same molecule, the GUS activity in series [2] (strain Y2034, 24 hr, HGM) is 19.154 nmoles of 4-MU per minute per mg of protein; in series [2] (strain Y2034, 48 hr, SD), 0.536 nmoles of 4-MU per minute per mg of protein; in series [2] (strain Y2034, 120 hr HGM) it was 13.400 nmoles of 4-MU per minute per mg of protein. Besides, the “increase of promoter activity” value in series [2] (switched from SD medium into HGM and grown for 24 hrs) is on record as ~37 fold. For the same molecule, in series [3], the “Activity “Rank”” value worked out at 6.

As for `CCOC(=O)c1ccccc1S(=O)(=O)NC(=O)Nc1nc(Cl)cc(OC)n1` [chlorimuron ethyl], the “concentration in minimal medium sufficient to inhibit growth” value in series [4] is 100 µg/mL.
